Measured values: ChEMBL document CHEMBL6153028, “Understanding the synergistic sensitization of natural products and antibiotics: An effective strategy to combat MRSA” (2025)

Assays:
Format in all cases: functional
[1] = test system: Staphylococcus aureus; assay: Synergistic antimicrobial activity against methicillin resistant Staphylococcus aureus assessed as fractional inhibitory concentration index incubated for 24 hrs in presence of Norfloxacin by checkerboard assay
[2] = test system: Staphylococcus aureus; assay: Synergistic antimicrobial activity against methicillin resistant Staphylococcus aureus assessed as fractional inhibitory concentration index incubated for 24 hrs in presence of Oxacillin by checkerboard assay
[3] = test system: Staphylococcus aureus; assay: Synergistic antibacterial activity against methicillin-resistant Staphylococcus aureus assessed as fractional inhibitory concentration index incubated for 24 hrs in presence of vancomycin by checkerboard assay
[4] = test system: Staphylococcus aureus; assay: Synergistic antimicrobial activity against methicillin resistant Staphylococcus aureus 43300 assessed as fractional inhibitory concentration index incubated for 24 hrs in presence of cefotaxime by checkerboard assay
[5] = test system: Staphylococcus aureus; assay: Synergistic antimicrobial activity against methicillin resistant Staphylococcus aureus 43300 assessed as fractional inhibitory concentration index incubated for 24 hrs in presence of imipenem by checkerboard assay
[6] = test system: Staphylococcus aureus; assay: Synergistic antimicrobial activity against methicillin resistant Staphylococcus aureus 43300 assessed as fractional inhibitory concentration index incubated for 24 hrs in presence of Cefuroxime by checkerboard assay
[7] = test system: Staphylococcus aureus; assay: Synergistic antimicrobial activity against methicillin resistant Staphylococcus aureus assessed as fractional inhibitory concentration index incubated for 24 hrs in presence of Fosfomycin by checkerboard assay
[8] = test system: Staphylococcus aureus; assay: Synergistic antimicrobial activity against methicillin resistant Staphylococcus aureus assessed as fractional inhibitory concentration index incubated for 24 hrs in presence of amikacin by checkerboard assay
[9] = test system: Staphylococcus aureus; assay: Synergistic antibacterial activity against Staphylococcus aureus assessed as fractional inhibitory concentration index incubated for 24 hrs in presence of ampicillin by checkerboard assay
[10] = test system: Staphylococcus aureus; assay: Synergistic antimicrobial activity against methicillin-resistant Staphylococcus aureus assessed as fractional inhibitory concentration index in presence of gentamicin by checkerboard assay
[11] = test system: Staphylococcus aureus; assay: Synergistic antibacterial activity against methicillin resistant Staphylococcus aureus assessed as fractional inhibitory concentration index in presence of ampicillin
[12] = test system: Staphylococcus aureus; assay: Synergistic antibacterial activity against methicillin-resistant Staphylococcus aureus assessed as fractional inhibitory concentration index incubated for 24 hrs in presence of cefazolin by checkerboard assay
[13] = test system: Staphylococcus aureus; assay: Synergistic antibacterial activity against methicillin resistant Staphylococcus aureus assessed as fractional inhibitory concentration index in presence of kanamycin incubated for 24 hrs by checkerboard assay
[14] = test system: Staphylococcus aureus; assay: Synergistic antimicrobial activity against methicillin-resistant Staphylococcus aureus assessed as fractional inhibitory concentration index in presence of gentamicin incubated for 24 hrs by checkerboard assay
[15] = test system: Staphylococcus aureus; assay: Synergistic antibacterial activity against methicillin resistant Staphylococcus aureus assessed as fractional inhibitory concentration index in presence of oxacillin incubated for 24 hrs by checkerboard assay
[16] = test system: Staphylococcus aureus; assay: Synergistic antibacterial activity against methicillin resistant Staphylococcus aureus assessed as fractional inhibitory concentration index in presence of ciprofloxacin
[17] = test system: Staphylococcus aureus; assay: Synergistic antimicrobial activity against methicillin resistant Staphylococcus aureus 43300 assessed as fractional inhibitory concentration index incubated for 24 hrs in presence of Oxacillin by checkerboard assay
[18] = test system: Staphylococcus aureus; assay: Synergistic antibacterial activity against methicillin-resistant Staphylococcus aureus assessed as fractional inhibitory concentration index in presence of cefoxitin
[19] = test system: Staphylococcus aureus; assay: Synergistic antimicrobial activity against methicillin resistant Staphylococcus aureus 43300 assessed as fractional inhibitory concentration index incubated for 24 hrs in presence of Penicillin by checkerboard assay
[20] = test system: Staphylococcus aureus; assay: Synergistic antimicrobial activity against methicillin resistant Staphylococcus aureus 43300 assessed as fractional inhibitory concentration index incubated for 24 hrs in presence of Vancomycin by checkerboard assay
[21] = test system: Staphylococcus aureus; assay: Synergistic antimicrobial activity against methicillin-resistant Staphylococcus aureus CCARM 3089 assessed as fractional inhibitory concentration index in presence of oxacillin incubated for 24 hrs by checkerboard assay
[22] = test system: Staphylococcus aureus; assay: Synergistic antimicrobial activity against methicillin-resistant Staphylococcus aureus assessed as fractional inhibitory concentration index in presence of vancomycin by checkerboard assay
[23] = test system: Staphylococcus aureus; assay: Synergistic antibacterial activity against methicillin resistant Staphylococcus aureus assessed as fractional inhibitory concentration index in presence of norfloxacin; conditions: time 24 hrs
[24] = test system: Staphylococcus aureus; assay: Synergistic antimicrobial activity against methicillin resistant Staphylococcus aureus 43300 assessed as fractional inhibitory concentration index incubated for 24 hrs in presence of norfloxacin by checkerboard assay
[25] = test system: Staphylococcus aureus; assay: Synergistic antibacterial activity against methicillin-resistant Staphylococcus aureus 4806 assessed as fractional inhibitory concentration index incubated for 24 hrs in presence of ampicillin by checkerboard assay
[26] = test system: Staphylococcus aureus; assay: Synergistic antibacterial activity against methicillin-resistant Staphylococcus aureus assessed as fractional inhibitory concentration index incubated for 24 hrs in presence of ampicillin by checkerboard assay
[27] = test system: Staphylococcus aureus; assay: Synergistic antibacterial activity against methicillin-resistant Staphylococcus aureus assessed as fractional inhibitory concentration index in presence of azithromycin
[28] = test system: Staphylococcus aureus; assay: Synergistic antibacterial activity against methicillin resistant Staphylococcus aureus assessed as fractional inhibitory concentration index incubated for 24 hrs in presence of levofloxacin by broth microdilution checkboard assay
[29] = test system: Staphylococcus aureus; assay: Synergistic antibacterial activity against methicillin-resistant Staphylococcus aureus assessed as fractional inhibitory concentration index incubated for 24 hrs in presence of fusidic acid by checkerboard assay

In the case of `O=C(OCC1O[C@H](OC(=O)c2cc(O)c(O)c(O)c2)[C@@H](O)[C@H](OC(=O)c2cc(O)c(O)c(O)c2)[C@H]1O)c1cc(O)c(O)c(O)c1` (stereo partly drawn), the “fractional inhibitory concentration index (FICI)” value [1] was 0.31 and the “fractional inhibitory concentration index (FICI)” value [2] was less than 0.5.

With `C[C@H]1COC2=C1C(=O)C(=O)c1c2ccc2c1CCCC2(C)C` [CRYPTOTANSHINONE] the “fractional inhibitory concentration index (FICI)” value [2] was 0.312 and the “fractional inhibitory concentration index (FICI)” value [3] was 0.37.

With `O=C1C=CC(=O)c2ccccc21` [NAPHTHOQUINONE] the “fractional inhibitory concentration index (FICI)” value [4] was 0.062, the “fractional inhibitory concentration index (FICI)” value [5] was 0.5 and the “fractional inhibitory concentration index (FICI)” value [6] was 0.06.

For `C=CCc1ccc(O)c(-c2ccc(O)c(CC=C)c2)c1` [HONOKIOL], the “fractional inhibitory concentration index (FICI)” value [7] was less than 0.5 and the “fractional inhibitory concentration index (FICI)” value [8] was less than 0.5.

In the case of `COc1ccc2c(c1OC)C(CC(C)=O)N(C)c1c-2ccc2cc3c(cc12)OCO3` (stereo not drawn), the “fractional inhibitory concentration index (FICI)” value [9] was 0.5.

In the case of `COc1cc(C)c2c(c1C)OC(=O)c1c(C)c(Cl)c(O)c(C=O)c1O2`, the “fractional inhibitory concentration index (FICI)” value [2] was 0.312 and the “fractional inhibitory concentration index (FICI)” value [10] was 0.25.

`C[C@H]1[C@H](C)CC[C@]2(C(=O)O)CC[C@]3(C)C(=CC[C@@H]4[C@@]5(C)CC[C@H](O)C(C)(C)[C@@H]5CC[C@]43C)[C@H]12` [URSOLIC ACID] was tested, and the “fractional inhibitory concentration index (FICI)” value [2] was less than 0.5 and the “fractional inhibitory concentration index (FICI)” value [11] was less than 0.5.

With `C[C@H]1[C@H](OC(=O)CCC(=O)O)O[C@@H]2O[C@@]3(C)CC[C@H]4[C@H](C)CC[C@@H]1[C@@]24OO3` [ARTESUNATE] the “fractional inhibitory concentration index (FICI)” value [2] was less than 0.5.

For `COc1ccc2cc1Oc1ccc(cc1)C[C@H]1c3cc(c(OC)cc3CCN1C)Oc1c(OC)c(OC)cc3c1[C@H]2N(C)CC3`, the “fractional inhibitory concentration index (FICI)” value [12] was 0.188.

In the case of `O=C/C=C/c1ccccc1` [CINNAMALDEHYDE], the “fractional inhibitory concentration index (FICI)” value [2] was 0.25, the “fractional inhibitory concentration index (FICI)” value [8] was 0.19 and the “fractional inhibitory concentration index (FICI)” value [10] was 0.37. The “fractional inhibitory concentration index (FICI)” value [3] was 0.25.

For `C=CCc1ccc(O)c(-c2cc(CC=C)ccc2O)c1` [MAGNOLOL], the “fractional inhibitory concentration index (FICI)” value [7] was less than 0.5.

In the case of `CC(C)=CCC/C(C)=C/Cc1cc(C2CC(=O)c3c(O)cc(O)cc3O2)c(O)cc1O` (stereo not drawn) [KUWANON E], the “fractional inhibitory concentration index (FICI)” value [13] was 0.5.

In the case of `CC(C)c1cc2c(c(O)c1O)[C@@]1(C(=O)O)CCCC(C)(C)[C@@H]1CC2` [CARNOSIC ACID], the “fractional inhibitory concentration index (FICI)” value [14] was 0.5.

In the case of `COc1ccc2cc1Oc1ccc(cc1)C[C@H]1c3cc(c(OC)cc3CCN1C)Oc1c(O)c(OC)cc3c1[C@H]2N(C)CC3`, the “fractional inhibitory concentration index (FICI)” value [12] was 0.25.

`CC(C)=CCc1c(-c2ccc(O)cc2O)oc2c3c(cc(O)c2c1=O)OC(C)(C)C=C3` [MORUSIN] was tested, and the “fractional inhibitory concentration index (FICI)” value [15] was 0.375 and the “fractional inhibitory concentration index (FICI)” value [13] was 0.5.

In the case of `Oc1cc(O)cc(/C=C/c2ccc(O)cc2O)c1` [OXYRESVERATROL], the “fractional inhibitory concentration index (FICI)” value [16] was 0.37 and the “fractional inhibitory concentration index (FICI)” value [3] was 0.37.

With `COc1ccc2c(c[n+](C)c3c4cc5c(cc4ccc23)OCO5)c1OC.[Cl-]` [CHELERYTHRINE CHLORIDE] the “fractional inhibitory concentration index (FICI)” value [17] was 0.5.

In the case of `CC1=C(C)[C@H]2C3=CC[C@@H]4[C@@]5(C)CC[C@H](O)C(C)(C)[C@@H]5CC[C@@]4(C)[C@]3(C)CC[C@@]2(C(=O)O)CC1`, the “fractional inhibitory concentration index (FICI)” value [9] was 0.5 and the “fractional inhibitory concentration index (FICI)” value [2] was 0.38.

For `CC(C)=CC[C@@H](O)C1=CC(=O)c2c(O)ccc(O)c2C1=O` [SHIKONIN], the “fractional inhibitory concentration index (FICI)” value [8] was 0.37, the “fractional inhibitory concentration index (FICI)” value [10] was 0.5 and the “fractional inhibitory concentration index (FICI)” value [18] was 0.57.

In the case of `C[C@H]1C2CCC3[C@@H]4CC=C5CC(N(C)C)CC[C@]5(C)[C@H]4CC[C@@]32CN1C=O` (stereo partly drawn), the “fractional inhibitory concentration index (FICI)” value [19] was 0.116 and the “fractional inhibitory concentration index (FICI)” value [20] was 0.502.

For `O=C(O[C@@H]1O[C@@H]2COC(=O)c3cc(O)c(O)c(O)c3-c3c(cc(O)c(O)c3O)C(=O)O[C@H]2[C@H](OC(=O)c2cc(O)c(O)c(O)c2)[C@H]1OC(=O)c1cc(O)c(O)c(O)c1)c1cc(O)c(O)c(O)c1` [EUGENIIN], the “fractional inhibitory concentration index (FICI)” value [21] was 0.395.

In the case of `O=C(O)c1cc(O)c2c(c1)C(=O)c1cccc(O)c1C2=O` [RHEIN], the “fractional inhibitory concentration index (FICI)” value [2] was 0.37.

With `C=C(C)[C@@H]1CC[C@]2(C=O)CC[C@]3(C)[C@H](CC[C@@H]4[C@@]5(C)CC[C@H](O)C(C)(C)[C@@H]5CC[C@]43C)[C@@H]12` [BETULINALDEHYDE] the “fractional inhibitory concentration index (FICI)” value [22] was 0.5.

For `C[C@@H]1O[C@@H](O[C@H]2[C@H](O[C@H]3CC[C@]4(C)[C@H]5CC=C6[C@@H]7CC(C)(C)CC[C@]7(C(=O)O)CC[C@@]6(C)[C@]5(C)CC[C@H]4C3(C)C)OC[C@H](O)[C@@H]2O)[C@H](O)[C@H](O)[C@H]1O`, the “fractional inhibitory concentration index (FICI)” value [2] was 0.28.

In the case of `O=c1c(-c2ccc(O)cc2)coc2cc(O)cc(O)c12` [GENISTEIN], the “fractional inhibitory concentration index (FICI)” value [23] was 0.38.

`COc1cc2c(cc1O)CC[n+]1cc3c(OC)c(OC)ccc3cc1-2.[I-]` was tested, and the “fractional inhibitory concentration index (FICI)” value [24] was 0.375.

`CC(C)=CCc1c(-c2ccc(O)cc2O)oc2c(CC=C(C)C)c(O)cc(O)c2c1=O` [KUWANON C] was tested, and the “fractional inhibitory concentration index (FICI)” value [15] was 0.5 and the “fractional inhibitory concentration index (FICI)” value [13] was 0.375.

With `CC1=CCC[C@@H]2[C@@](C)(C[C@H](O)C3=CC(=O)OC3O)[C@H](C)CC[C@@]12C` (stereo partly drawn) the “fractional inhibitory concentration index (FICI)” value [2] was 0.125.

With `CNC1CC[C@@]2(C)C(=CC[C@H]3C4CCC5[C@H](C)NC[C@@]54CC[C@@H]32)C1` (stereo partly drawn) the FIC [19] was 0.116 and the “fractional inhibitory concentration index (FICI)” value [20] was 0.116.

With `C=C(C)[C@@H]1CC[C@]2(C(=O)O)CC[C@]3(C)[C@H](CC[C@@H]4[C@@]5(C)CC[C@H](O)C(C)(C)[C@@H]5CC[C@]43C)[C@@H]12` [BETULINIC ACID] the “fractional inhibitory concentration index (FICI)” value [22] was 0.5.

For `CC1(C)CC[C@]2(C(=O)O)CC[C@]3(C)C(=CC[C@@H]4[C@@]5(C)CC[C@H](O)C(C)(C)[C@@H]5CC[C@]43C)[C@@H]2C1` [OLEANOLIC_ACID], the “fractional inhibitory concentration index (FICI)” value [2] was less than 0.5 and the “fractional inhibitory concentration index (FICI)” value [11] was less than 0.5.

`CC(C)=CCc1c(O)ccc(-c2oc3cc(O)cc(O)c3c(=O)c2CC=C(C)C)c1O` was tested, and the “fractional inhibitory concentration index (FICI)” value [15] was 0.375 and the “fractional inhibitory concentration index (FICI)” value [13] was 0.5.

For `COc1c(O)ccc2c1C(CC(C)=O)N(C)c1c-2ccc2cc3c(cc12)OCO3` (stereo not drawn), the “fractional inhibitory concentration index (FICI)” value [25] was 0.375, the “fractional inhibitory concentration index (FICI)” value [26] was 0.5 and the “fractional inhibitory concentration index (FICI)” value [9] was 0.5.

In the case of `COc1ccc2cc3[n+](cc2c1OC)CCc1cc2c(cc1-3)OCO2.[Cl-]` [BERBERINE CHLORIDE], the “fractional inhibitory concentration index (FICI)” value [27] was 0.188, the “fractional inhibitory concentration index (FICI)” value [28] was 0.375 and the “fractional inhibitory concentration index (FICI)” value [29] was 0.19.
